The values that follow come from patent US12116388B2, “Amylin receptor agonists” (Novo Nordisk A/S, priority 2022, dated 2024).

For the experiment, the target named is T1, human calcitonin receptor (hCTR) (Homo sapiens, UniProt P30988).
T1 construct: host or cells: BHK (Baby Hamster Kidney), Hollex-1 cell line
T1 sequence (P30988 25-474): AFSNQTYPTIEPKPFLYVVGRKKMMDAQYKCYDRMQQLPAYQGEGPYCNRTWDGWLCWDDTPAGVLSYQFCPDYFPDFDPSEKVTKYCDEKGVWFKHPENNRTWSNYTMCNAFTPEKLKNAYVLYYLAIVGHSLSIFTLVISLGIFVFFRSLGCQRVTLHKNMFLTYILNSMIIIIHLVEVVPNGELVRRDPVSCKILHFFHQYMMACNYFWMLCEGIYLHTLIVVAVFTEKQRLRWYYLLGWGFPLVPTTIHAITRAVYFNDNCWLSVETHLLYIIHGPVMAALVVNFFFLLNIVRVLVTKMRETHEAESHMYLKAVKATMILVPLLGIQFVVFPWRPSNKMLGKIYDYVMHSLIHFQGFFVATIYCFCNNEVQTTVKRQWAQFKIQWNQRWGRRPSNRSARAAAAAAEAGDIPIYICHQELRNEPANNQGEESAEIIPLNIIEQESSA
Put plainly: Human calcitonin receptor (hCTR) in vitro potency assay, CRE-luciferase reporter in BHK cells. Type of experiment: cell-based. To be noted: BHK hCTR/CRE-Luc cells, 3 hours incubation, assay buffer with 1% ovalbumin; read-out: hCalcR potency, EC50. The procedure, abridged: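 Luciferase signal from a CRE reporter served as the cAMP read-out after 3 h, 37 °C exposure to compound. Cells were stably transfected BHK expressing hCTR, and the buffer was phenol-red-free DMEM with 10 mM HEPES and 1% ovalbumin. Compounds were tested as 7-point, 7-fold dilutions, often from about 10 nM.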

pEC50: −log10 of the molar value. Starred links: 1 amine or outer side, 2 acyl side, 3 side chain; linkers in the order of their positions; H or OH if unused. Residues, ends and D or L forms follow the SMILES beside them. *: point of attachment. C20 diacid = O=C(O)CCCCCCCCCCCCCCCCCCC(=O)*; C18 diacid = O=C(O)CCCCCCCCCCCCCCCCC(=O)*; γGlu = O=C(O)[C@H](CCC(=O)[*:2])N[*:1]

A word on the pEC50: it is −log10 of the EC50, conventionally taken in molar units. As for `CC[C@H](C)[C@H](NC(=O)[C@@H]1CCCN1C(=O)CNC(=O)[C@H](Cc1ccccc1)NC(=O)[C@H](Cc1c[nH]cn1)NC(=O)[C@H](Cc1c[nH]cn1)NC(=O)[C@H](CC(C)C)NC(=O)[C@H](Cc1ccccc1)NC(=O)[C@H](CCC(=O)O)NC(=O)[C@H](C)NC(=O)[C@H](CC(C)C)NC(=O)[C@H](CCCNC(=N)N)NC(=O)[C@H](CCC(N)=O)NC(=O)[C@@H](NC(=O)[C@H](CCC(N)=O)NC(=O)[C@H](C)NC(=O)[C@@H](NC(=O)[C@H](CO)NC(=O)[C@H](CC(C)C)NC(=O)[C@H](Cc1c[nH]cn1)NC(=O)[C@H](CO)NC(=O)[C@H](C)NC(=O)CC[C@H](NC(=O)CCCCCCCCCCCCCCCCCCC(=O)O)C(=O)O)[C@@H](C)O)[C@@H](C)O)C(=O)N[C@@H](CC(C)C)C(=O)N1CCC[C@H]1C(=O)N1CCC[C@H]1C(=O)N[C@H](C(=O)N[C@@H](CC(=O)O)C(=O)N[C@H](C(=O)NCC(=O)N[C@@H](CO)C(=O)N[C@@H](CCC(=O)O)C(=O)N[C@H](C(=O)N1CCC[C@H]1C(N)=O)[C@@H](C)O)C(C)C)[C@@H](C)O` [Compound 4, N^1-[(4S)-4-carboxy-4-(19-carboxynonadecanoylamino)butanoyl]-[Ala1,Ser2,His3,Leu4,Ser5,Ala7,Gln8,Glu14,His17,Pro25,Pro28,Pro29,Asp31,Glu35,Pro37],des-(19-22)-human amylin] ({C20 diacid-γGlu}-ASHLSTAQTQRLAEFLHHFGPILPPTDVGSETP-NH2), the pEC50 is 11.84. To `CC[C@H](C)[C@H](NC(=O)[C@H](C)NC(=O)CNC(=O)[C@H](Cc1ccccc1)NC(=O)[C@@H]1CCCN1C(=O)[C@H](CC(=O)O)NC(=O)[C@H](CO)NC(=O)[C@H](CO)NC(=O)[C@H](Cc1c[nH]cn1)NC(=O)[C@H](Cc1c[nH]cn1)NC(=O)[C@H](CC(C)C)NC(=O)[C@H](Cc1ccccc1)NC(=O)[C@H](CCC(=O)O)NC(=O)[C@H](C)NC(=O)[C@H](CC(C)C)NC(=O)[C@H](CCCNC(=N)N)NC(=O)[C@H](CCC(N)=O)NC(=O)[C@@H](NC(=O)[C@H](CCC(N)=O)NC(=O)[C@H](C)NC(=O)[C@@H](NC(=O)[C@H](CO)NC(=O)[C@H](CC(C)C)NC(=O)[C@H](Cc1c[nH]cn1)NC(=O)[C@H](CO)NC(=O)[C@H](C)NC(=O)CC[C@H](NC(=O)CCCCCCCCCCCCCCCCC(=O)O)C(=O)O)[C@@H](C)O)[C@@H](C)O)C(=O)N1CCC[C@H]1C(=O)N[C@@H](CO)C(=O)N[C@@H](CO)C(=O)N[C@H](C(=O)N[C@@H](CC(=O)O)C(=O)N[C@H](C(=O)NCC(=O)N1CCC[C@H]1C(=O)N[C@@H](CC(=O)O)C(=O)N[C@H](C(=O)N1CCC[C@H]1C(N)=O)[C@@H](C)O)C(C)C)[C@@H](C)O` [Compound 8, N^1-[(4S)-4-carboxy-4-(17-carboxyheptadecanoylamino)butanoyl]-[Ala1,Ser2,His3,Leu4,Ser5,Ala7,Gln8,Glu14,His17,Asp21,Pro22,Pro27,Asp31,Pro34,Asp35,Pro37]-human amylin] ({C18 diacid-γGlu}-ASHLSTAQTQRLAEFLHHSSDPFGAIPSSTDVGPDTP-NH2) belongs 11.84; to `CC[C@H](C)[C@H](NC(=O)[C@H](C)NC(=O)CNC(=O)[C@H](Cc1ccccc1)NC(=O)[C@@H]1CCCN1C(=O)[C@H](CC(=O)O)NC(=O)[C@H](CO)NC(=O)[C@H](CO)NC(=O)[C@H](Cc1c[nH]cn1)NC(=O)[C@H](Cc1c[nH]cn1)NC(=O)[C@H](CC(C)C)NC(=O)[C@H](Cc1ccccc1)NC(=O)[C@H](CCC(=O)O)NC(=O)[C@H](C)NC(=O)[C@H](CC(C)C)NC(=O)[C@H](CCCNC(=N)N)NC(=O)[C@H](CCC(N)=O)NC(=O)[C@@H](NC(=O)[C@H](CCC(N)=O)NC(=O)[C@H](C)NC(=O)[C@@H](NC(=O)[C@H](CO)NC(=O)[C@H](CC(C)C)NC(=O)[C@H](CO)NC(=O)CNC(=O)[C@H](C)NC(=O)CC[C@H](NC(=O)CCCCCCCCCCCCCCCCC(=O)O)C(=O)O)[C@@H](C)O)[C@@H](C)O)C(=O)N1CCC[C@H]1C(=O)N[C@@H](CO)C(=O)N[C@@H](CO)C(=O)N[C@H](C(=O)N[C@@H](CC(=O)O)C(=O)N[C@H](C(=O)NCC(=O)N1CCC[C@H]1C(=O)N[C@@H](CC(=O)O)C(=O)N[C@H](C(=O)N1CCC[C@H]1C(N)=O)[C@@H](C)O)C(C)C)[C@@H](C)O` [Compound 10, N^1-[(4S)-4-carboxy-4-(17-carboxyheptadecanoylamino)butanoyl]-[Ala1,Gly2,Ser3,Leu4,Ser5,Ala7,Gln8,Glu14,His17,Asp21,Pro22,Pro27,Asp31,Pro34,Asp35,Pro37]-human amylin] ({C18 diacid-γGlu}-AGSLSTAQTQRLAEFLHHSSDPFGAIPSSTDVGPDTP-NH2), 11.83.

As to `CC[C@H](C)[C@H](NC(=O)[C@@H]1CCCN1C(=O)CNC(=O)[C@H](Cc1ccccc1)NC(=O)[C@H](CC(N)=O)NC(=O)[C@H](CC(=O)O)NC(=O)[C@H](CO)NC(=O)[C@H](CO)NC(=O)[C@H](Cc1c[nH]cn1)NC(=O)[C@H](Cc1c[nH]cn1)NC(=O)[C@H](CC(C)C)NC(=O)[C@H](Cc1ccccc1)NC(=O)[C@H](CCC(=O)O)NC(=O)[C@H](C)NC(=O)[C@H](CC(C)C)NC(=O)[C@H](CCCNC(=N)N)NC(=O)[C@H](C)NC(=O)[C@@H](NC(=O)[C@H](CCC(N)=O)NC(=O)[C@H](C)NC(=O)[C@@H](NC(=O)[C@H](CO)NC(=O)[C@H](CC(C)C)NC(=O)[C@H](Cc1c[nH]cn1)NC(=O)[C@H](CO)NC(=O)[C@H](C)NC(=O)CC[C@H](NC(=O)CCCCCCCCCCCCCCCCC(=O)O)C(=O)O)[C@@H](C)O)[C@@H](C)O)C(=O)N[C@@H](CC(C)C)C(=O)N1CCC[C@H]1C(=O)N1CCC[C@H]1C(=O)N[C@H](C(=O)N[C@@H](CC(=O)O)C(=O)N[C@H](C(=O)NCC(=O)N[C@@H](CO)C(=O)N[C@@H](CC(N)=O)C(=O)N[C@H](C(=O)N1CCC[C@H]1C(N)=O)[C@@H](C)O)C(C)C)[C@@H](C)O` [Compound 14, N^1-[(4S)-4-carboxy-4-(17-carboxyheptadecanoylamino)butanoyl]-[Ala1,Ser2,His3,Leu4,Ser5,Ala7,Gln8,Ala10,Glu14,His17,Asp21,Pro25,Pro28,Pro29,Asp31,Pro37]-human amylin] ({C18 diacid-γGlu}-ASHLSTAQTARLAEFLHHSSDNFGPILPPTDVGSNTP-NH2), the pEC50 was 11.79. In the case of `CC[C@H](C)[C@H](NC(=O)[C@@H]1CCCN1C(=O)CNC(=O)[C@H](Cc1ccccc1)NC(=O)[C@H](Cc1c[nH]cn1)NC(=O)[C@H](Cc1c[nH]cn1)NC(=O)[C@H](CC(C)C)NC(=O)[C@H](Cc1ccccc1)NC(=O)[C@H](CCC(=O)O)NC(=O)[C@H](C)NC(=O)[C@H](CC(C)C)NC(=O)[C@H](CCCNC(=N)N)NC(=O)[C@H](C)NC(=O)[C@@H](NC(=O)[C@H](CCC(N)=O)NC(=O)[C@H](C)NC(=O)[C@@H](NC(=O)[C@H](CO)NC(=O)[C@H](CC(C)C)NC(=O)[C@H](CCC(=O)O)NC(=O)CNC(=O)[C@H](C)NC(=O)CC[C@H](NC(=O)CCCCCCCCCCCCCCCCC(=O)O)C(=O)O)[C@@H](C)O)[C@@H](C)O)C(=O)N[C@@H](CC(C)C)C(=O)N1CCC[C@H]1C(=O)N1CCC[C@H]1C(=O)N[C@H](C(=O)N[C@@H](CC(=O)O)C(=O)N[C@H](C(=O)NCC(=O)N[C@@H](CO)C(=O)N[C@@H](CCC(=O)O)C(=O)N[C@H](C(=O)N1CCC[C@H]1C(N)=O)[C@@H](C)O)C(C)C)[C@@H](C)O` [Compound 16, N^1-[(4S)-4-carboxy-4-(17-carboxyheptadecanoylamino)butanoyl]-[Ala1,Gly2,Glu3,Leu4,Ser5,Ala7,Gln8,Ala10,Glu14,His17,Pro25,Pro28,Pro29,Asp31,Glu35,Pro37],des-(19-22)-human amylin] ({C18 diacid-γGlu}-AGELSTAQTARLAEFLHHFGPILPPTDVGSETP-NH2) it was 11.99.
